From patent US9174951B2, “Glucose transporter inhibitors” (The Ohio State University Research Foundation, priority 2012, dated 2015)
Entries after “also recorded” stand apart in the source; their conditions may differ.

Assays:
DU-145 cells = experiment: MTT cell viability assay, DU-145; format: cell-based; conditions: Homo sapiens, 72 h, 10% FBS
Protocol: (§1) Cell Viability Assay. Cell viability was determined using the 3-(4,5-dimethylthiazol-2-yl)-2,5-diphenyltetrazolium bromide (MTT) assay. Cancer cells were seeded at 5000 cells/well and normal cells were seeded at 8000 cells/well in 96-well plates and incubated in 10% FBS-supplemented medium for 24 h. Cells were then treated with individual agents for 72 h. Drug-containing medium was replaced with medium containing MTT (0.5 mg/mL), followed by incubation at 37° C. for 1 h. After removal of medium, the reduced MTT dye in each well was solubilized in 100 μL of DMSO and absorbance at 570 nm was measured.
(§2) Compound 30 was evaluated for antiproliferative activity in panels of different human cancer cells lines, including those of prostate, breast and pancreatic cancers. In all experiments, cells were treated with a range of concentrations of Compound 30 in the presence of 10% fetal bovine serum (FBS). Cell viability was then determined after 72 h of treatment using the 3-(4,5-dimethylthiazol-2-yl)-2,5-diphenyltetrazolium bromide (MTT) assay. […] It is noteworthy that despite this high antiproliferative potency, normal human prostate epithelial cells (PrECs) were resistant to the cytotoxic effect of Compound 30 even at 10 μM.

MDA-MB-231 cells = experiment: MTT cell viability assay, MDA-MB-231; format: cell-based; conditions: Homo sapiens, 72 h, 10% FBS
Protocol: as §1, §2

[1] = system: human mammary epithelial cells (HMECs); experiment: MTT cell viability assay, normal mammary epithelial cells; format: cell-based; conditions: 72 h, up to 10 μM
Description: (§3) Cells and Cell Culture. LNCaP prostate cancer cells were obtained from the American Type Culture Collection (Manassas, Va.). Cells were maintained in 10% fetal bovine serum (FBS)-supplemented RPMI 1640 medium (Invitrogen, Carlsbad, Calif.). Normal human mammary epithelial cells (HMEC) and normal human prostate epithelial cells (PrEC) were obtained from Lonza (Walkersville, Md.) and were maintained in Mammary Epithelial Cell Growth Medium (MEGM) and Prostate Epithelial Cell Growth Medium (PrEGM) (Lonza, Walkersville, Md.), respectively.
as §1

SKBR3 cells = experiment: MTT cell viability assay, SKBR3; format: cell-based; conditions: Homo sapiens, SK-BR-3, 72 h, 10% FBS
Protocol: as §1, §2

Cal-51 cells = experiment: MTT cell viability assay, Cal-51; format: cell-based; conditions: Homo sapiens, 72 h, 10% FBS
Protocol: as §1, §2

[2] = system: PANC1-GemR (gemcitabine-resistant subline); experiment: MTT cell viability assay, PANC1-GemR; format: cell-based; conditions: Homo sapiens, 72 h, 10% FBS, read-out: IC50, viability of PANC1-GemR cells
Protocol: as §1, §2

[3] = system: normal human prostate epithelial cells (PrECs); experiment: MTT cell viability assay, normal prostate epithelial cells; format: cell-based; conditions: 72 h, up to 10 μM
Description: as §3, §1

AsPC1 cells = experiment: MTT cell viability assay, AsPC1; format: cell-based; conditions: Homo sapiens, 72 h, 10% FBS
Protocol: as §1, §2

PC-3 cells = experiment: MTT cell viability assay, PC-3; format: cell-based; conditions: Homo sapiens, 72 h, 10% FBS
Protocol: as §1, §2

LNCaP cells [4] = experiment: Western blot analysis of energy restriction-associated markers in LNCaP cells; format: cell-based, human
Protocol: FIG. 4. (A) Dose-dependent suppressive effects of compounds 1, 2, 4, 5, 28, and 30 on the viability of LNCaP cells by MTT assays in 10% FBS-containing RPMI 1640 medium after 72 h of drug treatment. Column, mean; bars, SD (N=6). (B) Dose-dependent effect of compound 30 on the viability of normal prostate epithelial cells (PrECs) and human mammary epithelial cells (HMECs) after 72 h of treatment. Column, mean; bars, SD (N=6). (C) Western blot analysis of the dose-dependent effects of compound 30 on markers associated with apoptosis (PARP cleavage), β-TrCP-mediated protein degradation (β-TrCP, cyclin D1, Sp1, and AR), AMPK activation (p-AMPK, p-mTOR, and pp706SK), ER stress (GRP78 and GADD153), and epigenetic activation of KLF6.
Plasmid Construction, Transient Transfection and Immunoblotting. The full length GLUT1, GLUT4, and GLUT9 ORF cDNA clones were purchased from Addgene (Cambridge, Mass.) and GLUT3 ORF cDNA was purchased from Origene Technologies (Rockville, Md.). GLUT1, GLUT3, and GLUT9 were subcloned into the HindIII/SalI sites and GLUT4 was subcloned into the EcoRI/SalI sites of pEGFP-N2 expression vector (Clontech, Palo Alto, Calif.). Transfections were performed by electroporation using Nucleofector kit R of the Amaxa Nucleofector system (Lonza, Walkersville, Md.) according to the manufacturer's protocol. Immunoblotting was performed using cells lysates harvested with SDS lysis buffer (1% SDS, 50 mM Tris-HCl pH 8.0, 10 mM EDTA) containing 1× protease inhibitor cocktail (Sigma) and phosphatase inhibitor and were electrophoresed in 8˜12% SDS polyacrylamide gels and then transferred onto nitrocellulose membranes. After blotting in 5% nonfat dry milk, the membranes were incubated with primary antibodies at 1:1,000 dilution in TBS-Tween 20 overnight at 4° C., and then secondary antibodies conjugated with horseradish peroxidase at 1:5,000 dilution in TBS-Tween 20 for 1 hour at room temperature. Protein bands were visualized on X-ray film using an enhanced chemiluminescence system.

PANC1 cell line = experiment: MTT cell viability assay, PANC1; format: cell-based; conditions: Homo sapiens, PANC-1, 72 h, 10% FBS, read-out: IC50, viability of PANC1 cells
Protocol: as §1, §2

LNCaP cells [5] = experiment: [3H]2-DG glucose uptake assay in LNCaP cells; format: cell-based, human
Protocol: Screening of the focused compound library to identify lead glucose uptake inhibitors.
Glucose Uptake Assay. LNCaP cells were seeded in six-well plates (3×10^5 cells/well) for 24 h. […] The cells were lysed in […] lysis buffer (10 mM Tris-HCl pH 8.0, 0.1% SDS) and aliquots were taken for measurement of radioactivity using a scintillation counter (Beckman LS6500).

MDAMB-468 cells = experiment: MTT cell viability assay, MDAMB-468; format: cell-based; conditions: Homo sapiens, MDA-MB-468, 72 h, 10% FBS
Protocol: as §1, §2

MCF-7 cells = experiment: MTT cell viability assay, MCF-7; format: cell-based; conditions: Homo sapiens, MCF7, 72 h, 10% FBS
Protocol: as §1, §2

With CC(CN1C(=O)S/C(=C\c2ccc(O)c(C(F)(F)F)c2)C1=O)(CC(F)(F)F)CC(F)(F)F [Compound 30, 5-(4-Hydroxy-3-trifluoromethyl-benzylidene)-3-[4,4,4-trifluoro-2-methyl-2-(2,2,2-trifluoro-ethyl)-butyl]-thiazolidine-2,4-dione] the IC50 (DU-145 cells) was 1500 to 1700 nM, the IC50 (MDA-MB-231 cells) was 1900 nM and the “cytotoxic effect in HMECs” value [1] was “resistant; also recorded: no appreciable cytoxicity; also recorded: no appreciable cytotoxicity”. It also gave an IC50 (SKBR3 cells) of 1600 nM, an IC50 (Cal-51 cells) of 1700 nM and an IC50 [2] of ~2500 nM. The “cytotoxic effect in PrECs” value [3] was “resistant; also recorded: no appreciable cytoxicity; also recorded: no appreciable cytotoxicity”, the IC50 (AsPC1 cells) was ~5000 nM and the IC50 (PC-3 cells) was 1500 to 1700 nM. The AMPK phosphorylation (LNCaP cells [4]) was “increases”, the “PARP cleavage (apoptosis)” value (LNCaP cells [4]) was “dose-dependent increase” and the “expression of ER stress markers GRP78 and GADD153” value (LNCaP cells [4]) was “increased expression”. For the same compound, the “expression of KLF6” value (LNCaP cells [4]) was “increased the expression”, the “expression of cyclin D1, Sp1 and AR” value (LNCaP cells [4]) was “downregulation” and the “levels of p-mTOR and p-p70S6K” value (LNCaP cells [4]) was “concomitant decreases”. The β-TrCP expression (LNCaP cells [4]) was “dose dependently increased”, the IC50 (PANC1 cell line) was ~2500 nM and the IC50 (LNCaP cells [5]; Homo sapiens, LNCaP, Krebs-Ringer phosphate buffer, 37° C., 30 min of drug treatment, read-out: IC50 in blocking [3H]2-DG uptake into LNCaP cells) was 2500 nM. The “inhibition of [3H]2-DG uptake into LNCaP cells (screening, in words)” value (LNCaP cells [5]; each at 5 μM, 30 min of exposure) was “substantially improved potency relative to compound 5”, the IC50 (MDAMB-468 cells) was 1500 nM and the IC50 (MCF-7 cells) was ~700 nM.
